Measured values taken from BindingDB's records for doi:10.1016/j.bmc.2008.06.036 (University of Texas Medical Branch, 2008).

Experiment: Inhibition of Bacillus anthracis edema factor-induced cytotoxicity in mouse RAW264.7 cells assessed as LDH release after 4 hrs

O=C(O)c1cccc(NC(=O)c2cccc3c2C(=O)c2ccccc2-3)c1 [3-[(9-oxo-9Hfluorene-1-carbonyl)-amino]-benzoic acid]
IC50: 1.7 µM

COC(=O)c1ccc([C@H]2Nc3ccc(C(=O)O)cc3[C@@H]3C=CC[C@H]23)cc1 [(3aS,4S,9bR)-4-(4-(methoxycarbonyl)phenyl)-3a,4,5,9b-tetrahydro-3H-cyclopenta[c]quinoline-8-carboxylic acid]
IC50: 100 µM
